Where two headings read alike, the source gives them in different places.
How the values were obtained:
[1] = cited from earlier work
[2] = cited from earlier work; remark: listed apart in the source
[3] = tested on: isolated rat liver mitochondria; experiment: Mitochondrial swelling (absorbance at 535 nm); format: biochemical
[4] = tested on: isolated rat liver mitochondria; experiment: Mitochondrial inner membrane potential (MMP), Rhodamine 123; format: biochemical; details: difference in signal between KI and DMSO treated samples at the end of experiments
Excerpt: Fig. 3 KI effects on mitochondrial inner membrane potential (MMP). […] In a, c, data are means and standard derivations from three separate experiments. *p < 0.05 as compared to DMSO-treated samples at the end of experiments. In b, data are means of two independent experiments

RCC II = target: T1, RCC II (Rattus norvegicus, UniProt P21913+Q641Z9+Q6PCT8+Q920L2); experiment: RCC II activity in submitochondrial particles; format: biochemical; set-up: key: activity relative to DMSO-treated controls (control set as 1 = 100%); details: relative to DMSO treated samples
T1 construct: Submitochondrial particles were prepared by subjecting the intact mitochondria to three successive freeze–thaw cycles; from tissue; host or cells: rat liver mitochondria, used as submitochondrial particles
How it was run: (§1)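 Abs 340 nm (I/V) or 600 nm (II), 1-min reads × 6 min; 550 nm (III, IV), 10-s reads × 2 min. RCC I = rotenone-free minus rotenone rate. DMSO control = 1.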

RCC V = RCC V activity in submitochondrial particles; format: biochemical, rat; details: for RCC activity V: 15 min, DMSO-treated = 100
How it was run: as §1

RCC III = RCC III activity in submitochondrial particles; format: biochemical, rat; details: 15 min, DMSO-treated = 100
How it was run: as §1

RCC I = RCC I activity in submitochondrial particles; format: biochemical, rat; set-up: key to RCC I at 10XCmax / RCC I at 100XCmax / RCC I at 50XCmax / RCC I at 30XCmax / RCC I at 20XCmax: activity relative to DMSO-treated controls (control set as 1 = 100%); details: for RCC activity I: 15 min, DMSO-treated = 100
How it was run: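 First, submitochondrial particles (1 mg/ml) are incubated with inhibitor for 15 min. Next, complex activities are followed spectrophotometrically, with RCC I taken as the difference between buffers lacking and containing rotenone. Finally, activities are expressed relative to DMSO controls set at 1.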

RCC IV = RCC IV activity in submitochondrial particles; format: biochemical, rat; set-up: key to RCC IV at 50XCmax / RCC IV at 100XCmax: activity relative to DMSO-treated controls (control set as 1 = 100%); details: for RCC activity IV: 15 min, DMSO-treated = 100
How it was run: as §1

[5] = tested on: isolated rat liver mitochondria; experiment: Mitochondrial oxygen consumption (glutamate/malate or succinate driven, state 4 and state 3); format: biochemical
How it was run: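 Oxygen uptake on glutamate/malate or on succinate defined state 4; ADP added 3 min later gave state 3. Mitochondria isolated from rat liver by differential centrifugation, adjusted to 1 mg/ml and pretreated 5 min with inhibitor (0.1% DMSO final). Values relative to DMSO control, set to 1.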

[6] = 1XCmax, DMSO treated samples set as 1
[7] = 2.5XCmax, DMSO treated samples set as 1
[8] = 5XCmax, DMSO treated samples set as 1
[9] = 10XCmax, DMSO treated samples set as 1
[10] = 20XCmax, DMSO treated samples set as 1
[11] = 30XCmax, DMSO treated samples set as 1
[12] = 50XCmax, DMSO treated samples set as 1
[13] = 100XCmax, DMSO treated samples set as 1

T1 sequence (Q920L2 35-656): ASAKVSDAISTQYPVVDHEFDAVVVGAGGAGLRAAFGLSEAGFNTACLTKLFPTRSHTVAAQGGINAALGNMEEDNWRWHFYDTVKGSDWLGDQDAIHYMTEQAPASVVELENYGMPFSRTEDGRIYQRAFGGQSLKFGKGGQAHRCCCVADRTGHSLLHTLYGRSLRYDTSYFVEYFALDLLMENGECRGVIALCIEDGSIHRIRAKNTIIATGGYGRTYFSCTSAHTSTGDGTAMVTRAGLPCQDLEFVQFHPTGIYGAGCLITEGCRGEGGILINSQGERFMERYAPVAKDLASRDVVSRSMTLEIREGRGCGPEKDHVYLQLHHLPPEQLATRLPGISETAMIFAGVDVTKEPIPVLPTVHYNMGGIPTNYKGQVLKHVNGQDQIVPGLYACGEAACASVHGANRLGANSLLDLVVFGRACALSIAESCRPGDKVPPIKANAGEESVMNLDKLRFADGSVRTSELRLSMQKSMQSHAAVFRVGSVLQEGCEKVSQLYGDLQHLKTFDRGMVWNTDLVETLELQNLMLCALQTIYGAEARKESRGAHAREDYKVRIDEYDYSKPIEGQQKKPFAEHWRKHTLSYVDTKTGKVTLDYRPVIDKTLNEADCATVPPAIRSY
T1 sequence (P21913 31-282): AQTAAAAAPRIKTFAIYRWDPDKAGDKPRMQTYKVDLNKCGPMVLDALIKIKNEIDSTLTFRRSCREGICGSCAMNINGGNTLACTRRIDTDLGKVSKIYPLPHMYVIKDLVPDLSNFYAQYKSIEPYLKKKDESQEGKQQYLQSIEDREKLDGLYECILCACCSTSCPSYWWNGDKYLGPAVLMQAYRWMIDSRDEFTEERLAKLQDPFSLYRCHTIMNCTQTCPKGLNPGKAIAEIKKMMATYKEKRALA
T1 sequence (Q641Z9 1-169): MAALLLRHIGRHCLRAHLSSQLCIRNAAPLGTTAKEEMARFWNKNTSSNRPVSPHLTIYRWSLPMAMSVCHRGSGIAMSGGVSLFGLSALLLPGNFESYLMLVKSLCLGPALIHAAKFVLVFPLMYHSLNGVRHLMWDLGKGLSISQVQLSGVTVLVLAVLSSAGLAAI
T1 sequence (Q6PCT8 57-159): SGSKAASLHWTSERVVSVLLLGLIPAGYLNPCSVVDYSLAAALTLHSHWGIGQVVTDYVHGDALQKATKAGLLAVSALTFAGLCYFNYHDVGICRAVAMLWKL

COc1cc2c(Nc3ccc(Br)cc3F)ncnc2cc1OCC1CCN(C)CC1 [Vandetanib]
65.88±7.15: RCC I at 100XCmax (RCC I; 100XCmax, relative to DMSO treated samples)
857 ng/mL: Cmax ([1]; therapeutic maximal blood concentration, ref product labeling)
100 fold Cmax: lowest concentration causing mitochondrial swelling [3]
1.8 µM: Cmax ([1]; human therapeutic Cmax at FDA recommended dosages, ref product labeling and drug approval packages at the official FDA website) | Cmax ([1]; read-out: Cmax at µM, therapeutic maximal blood concentration, ref product labeling)
95.65 ± 4.66 % of control: RCC activity V (RCC V; 50-fold Cmax)
85.15 ± 8.36 % of control: RCC activity V (RCC V; 100-fold Cmax)
significant mitochondrial swelling: effect on mitochondrial swelling ([3]; up to 100-fold Cmax or highest testable concentration, 25 µM calcium chloride)
87.71±0.58: RCC I at 50XCmax (RCC I; 50XCmax, relative to DMSO treated samples)
91.23 ± 6.54 % of control: RCC activity III (RCC III; 100-fold Cmax)
0.22±0.06: Swelling 100XCmax ([3]; 100XCmax, difference in signal between KI and DMSO treated samples at the end of experiments)
0: DILI potential (based on labeling) ([2]; 1 = DILI positive, 0 = negative, ref product labeling) | DILI potential (based on labeling) ([2]; ref FDA product labeling) | Swelling 1XCmax ([3]; 1XCmax, difference in signal between KI and DMSO treated samples at the end of experiments) | Swelling 2.5XCmax ([3]; 2.5XCmax, difference in signal between KI and DMSO treated samples at the end of experiments) | Swelling 5XCmax ([3]; 5XCmax, difference in signal between KI and DMSO treated samples at the end of experiments) | Swelling 10XCmax ([3]; 10XCmax, difference in signal between KI and DMSO treated samples at the end of experiments) | Swelling 20XCmax ([3]; 20XCmax, difference in signal between KI and DMSO treated samples at the end of experiments) | Swelling 30XCmax ([3]; 30XCmax, difference in signal between KI and DMSO treated samples at the end of experiments) | Swelling 50XCmax ([3]; 50XCmax, difference in signal between KI and DMSO treated samples at the end of experiments) | MMP measured by Rhodamine 123 at 1XCmax ([4]; 1XCmax) | MMP measured by Rhodamine 123 at 2.5XCmax ([4]; 2.5XCmax) | MMP measured by Rhodamine 123 at 5XCmax ([4]; 5XCmax) | MMP measured by Rhodamine 123 at 10XCmax ([4]; 10XCmax) | MMP measured by Rhodamine 123 at 20XCmax ([4]; 20XCmax) | MMP measured by Rhodamine 123 at 30XCmax ([4]; 30XCmax) | MMP measured by Rhodamine 123 at 50XCmax ([4]; 50XCmax) | MMP measured by Rhodamine 123 at 100XCmax ([4]; 100XCmax) | RCC II at 1.0XCmax (RCC II; 1.0XCmax) | RCC II at 2.5XCmax (RCC II; 2.5XCmax) | RCC II at 5XCmax (RCC II; 5XCmax) | RCC II at 10XCmax (RCC II; 10XCmax) | RCC II at 20XCmax (RCC II; 20XCmax) | RCC II at 30XCmax (RCC II; 30XCmax) | RCC II at 50XCmax (RCC II; 50XCmax) | RCC II at 100XCmax (RCC II; 100XCmax) | RCC V at 5XCmax (RCC V; 5XCmax, relative to DMSO treated samples) | RCC I at 10XCmax (RCC I; 10XCmax, relative to DMSO treated samples) | RCC IV at 50XCmax (RCC IV; 50XCmax, relative to DMSO treated samples, in %) | State 3 respiration driven by glutamate/malate at 1XCmax [5, 6] | State 3 respiration driven by succinate at 1XCmax [5, 6] | State 4 respiration driven by glutamate/malate at 1XCmax [5, 6] | State 4 respiration driven by succinate at 1XCmax [5, 6] | State 3 respiration driven by glutamate/malate at 2.5XCmax [5, 7] | State 3 respiration driven by succinate at 2.5XCmax [5, 7] | State 4 respiration driven by glutamate/malate at 2.5XCmax [5, 7] | State 4 respiration driven by succinate at 2.5XCmax [5, 7] | State 3 respiration driven by glutamate/malate at 5XCmax [5, 8] | State 3 respiration driven by succinate at 5XCmax [5, 8] | State 4 respiration driven by glutamate/malate at 5XCmax [5, 8] | State 4 respiration driven by succinate at 5XCmax [5, 8] | State 3 respiration driven by glutamate/malate at 10XCmax [5, 9] | State 3 respiration driven by succinate at 10XCmax [5, 9] | State 4 respiration driven by glutamate/malate at 10XCmax [5, 9] | State 4 respiration driven by succinate at 10XCmax [5, 9] | State 3 respiration driven by glutamate/malate at 20XCmax [5, 10] | State 3 respiration driven by succinate at 20XCmax [5, 10] | State 4 respiration driven by glutamate/malate at 20XCmax [5, 10] | State 4 respiration driven by succinate at 20XCmax [5, 10] | State 3 respiration driven by glutamate/malate at 30XCmax [5, 11] | State 3 respiration driven by succinate at 30XCmax [5, 11] | State 4 respiration driven by glutamate/malate at 30XCmax [5, 11] | State 4 respiration driven by succinate at 30XCmax [5, 11] | State 3 respiration driven by glutamate/malate at 50XCmax [5, 12] | State 3 respiration driven by succinate at 50XCmax [5, 12] | State 4 respiration driven by glutamate/malate at 50XCmax [5, 12] | State 4 respiration driven by succinate at 50XCmax [5, 12] | State 3 respiration driven by glutamate/malate at 100XCmax [5, 13] | State 3 respiration driven by succinate at 100XCmax [5, 13] | State 4 respiration driven by glutamate/malate at 100XCmax [5, 13] | State 4 respiration driven by succinate at 100XCmax [5, 13]
103.06 ± 12.96 % of control: RCC activity IV (RCC IV; 100-fold Cmax)
65.88 ± 7.15 % of control: RCC activity I (RCC I; 100-fold Cmax)
87.71 ± 0.58 % of control: RCC activity I (RCC I; 50-fold Cmax)
99.20 ± 5.61 % of control: RCC activity III (RCC III; 50-fold Cmax)
100.56 ± 2.67 % of control: RCC activity IV (RCC IV; 50-fold Cmax)
no effects: effect on mitochondrial oxygen consumption ([5]; up to 100-fold Cmax or highest testable concentration)
50 fold Cmax: lowest concentration inhibiting RCC I (RCC I; submitochondrial particles)

— article PMC5515969, “Effects of 31 FDA approved small-molecule kinase inhibitors on isolated rat liver mitochondria” (Archives of Toxicology, 2016)
